Data: US20230365488A1, “TRUXILLIC ACID MONOESTER-DERIVATIVES AS SELECTIVE FABP5 INHIBITORS AND PHARMACEUTICAL COMPOSITIONS AND USES THEREOF” (The Research Foundation for The State University of New York, priority 2020, published 2023)

How the values were obtained:
[1] = molecular target: FABP5 (Homo sapiens (Human), UniProt Q01469); assay: FABP5 fluorescent probe displacement binding assay; settings: for Ki: average ± S.E. of at least three independent experiments; for FABP3 Ki/FABP5 Ki: selectivity ratio FABP3 over FABP5
[2] = system: WI-38 (human normal lung fibroblast) cells; assay: Cytotoxicity (MTT) assay, WI-38 (Example 5); assay type: cell-based; settings: 72-hour incubation, 1% FBS
[3] = system: PC-3 (human metastatic prostate cancer) cells; assay: Cytotoxicity (MTT) assay, PC-3 (Example 5); assay type: cell-based; settings: 72-hour incubation, 1% FBS, read-out: PC3 IC50
[4] = molecular target: FABP3 (Homo sapiens (Human), UniProt P05413); assay: FABP3 fluorescent probe displacement binding assay; settings: average ± S.E. of at least three independent experiments
[5] = molecular target: FABP7 (Homo sapiens (Human), UniProt O15540); assay: FABP7 fluorescent probe displacement binding assay; settings: average ± S.E. of at least three independent experiments
[6] = system: HepG2 (human liver cancer) cells; assay: Cytotoxicity (MTT) assay, HepG2 (Example 5); assay type: cell-based; settings: 72-hour incubation, 1% FBS

Chain of FABP7 (O15540 whole entry): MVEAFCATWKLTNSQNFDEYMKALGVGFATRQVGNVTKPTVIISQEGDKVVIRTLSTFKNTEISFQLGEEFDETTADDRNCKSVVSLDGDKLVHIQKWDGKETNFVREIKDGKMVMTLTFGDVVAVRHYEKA
Chain of FABP5 (Q01469 whole entry): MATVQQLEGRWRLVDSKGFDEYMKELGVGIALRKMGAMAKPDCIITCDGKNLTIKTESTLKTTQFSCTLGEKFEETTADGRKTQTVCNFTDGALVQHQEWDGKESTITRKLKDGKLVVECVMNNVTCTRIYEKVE
Chain of FABP3 (P05413 whole entry): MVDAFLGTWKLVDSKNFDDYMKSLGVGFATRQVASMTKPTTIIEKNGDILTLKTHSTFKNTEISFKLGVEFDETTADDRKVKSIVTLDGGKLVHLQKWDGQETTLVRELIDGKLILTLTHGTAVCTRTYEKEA

Row | Ki [1] [µM] | FABP3 Ki/FABP5 Ki [1] | Ki [4] [µM] | Ki [5] [µM] | SMILES | IC50 [2] [µM] | IC50 [3] [µM] | IC50 [6] [µM]
1 | 0.41 ± 0.15 | 9.8 | 4.02 ± 1.04 | 0.91 ± 0.03 | COc1ccccc1C1[C@@H](C(=O)O)[C@@H](c2ccccc2OC)[C@@H]1C(=O)Oc1cccc(-c2cccc3c2OCCO3)c1 (mixture of isomers) [Compound 1g, (±)-α-3-[3-(2,3-dihydrobenzo[b][1,4]dioxin-5-yl)phenoxycarbonyl]-2,4-di(2-methoxyphanyl)cyclobutane-1-carboxylic acid] | 49.8 | 4.53 | 8.87
2 | 0.79 ± 0.18 | 1.4 | 1.13 ± 0.15 | 0.32 ± 0.13 | O=C(O)[C@@H]1C(c2ccccc2)[C@@H](C(=O)Oc2ccccc2-c2ccc3c(c2)OCO3)[C@@H]1c1ccccc1 (mixture of isomers) [Compound 1i, (±)-α-3-[2-(benzo[d][1,3]dioxol-5-yl)phenoxycarbonyl]-2,4-di (2-dimethoxyphenyl)cyclobutane-1-dicarboxylic acid] |  |  | 
3 | 2.81 ± 0.42 | 0.8 | 2.29 ± 0.56 | 0.67 ± 0.15 | COc1ccccc1C1[C@@H](C(=O)O)[C@@H](c2ccccc2OC)[C@@H]1C(=O)Oc1ccccc1-c1ccc2c(c1)OCCO2 (mixture of isomers) [Compound 1s, (±)-α-3-[2-(2,3-dihydrobenzo[b][1,4]dioxin-6-yl)phenoxycarbonyl]-2,4-bis(2-methoxyphenyl)cyclobutane-1-carboxylic acid] |  |  | 
4 | 1.39 ± 0.07 | 4.1 | 5.78 ± 1.3 | 0.95 ± 0.05 | N#Cc1ccc(-c2ccccc2OC(=O)[C@H]2C(c3ccccc3)[C@@H](C(=O)O)[C@H]2c2ccccc2)cc1 (mixture of isomers) [Compound 2d, (±)-γ-3-(4′-cyano-1,1′-biphenyl]-2-yloxycarbonyl)-2,4-diphenylcyclobutane-1-carboxylic acid] |  |  | 
5 |  |  | 1.66 ± 0.45 | 1.45 ± 0.52 | COc1ccccc1[C@H]1[C@H](C(=O)O)[C@H](c2ccccc2OC)[C@@H]1C(=O)Oc1cccc2ccccc12 (racemic) [Compound 2f, (±)-γ-2,4-di (2-methoxyphenyl)-3-(naphthalen-1-yloxycarbonyl)cyclobutane-1-carboxylic acid] |  |  | 
6 | 3.69 ± 0.65 | 2.2 | 8.18 ± 2.67 | 5.12 ± 0.32 | COc1ccccc1C1[C@@H](C(=O)O)[C@@H](c2ccccc2OC)[C@H]1C(=O)Oc1cccc(-c2ccc3c(c2)OCCO3)c1 (mixture of isomers) [Compound 2k, (±)-γ-3-[3-(2,3-dihydrobenzo[b][1,4]dioxin-6-yl)phenoxycarbonyl]-2,4-di(2-methoxyphenyl)cyclobutane-1-carboxylic acid] |  |  | 
7 | 2.56 ± 0.17 | 0.51 | 1.3 ± 0.18 | 4.19 ± 0.71 | O=C(O)[C@H]1[C@H](c2ccccc2)[C@@H](C(=O)Oc2ccc3cc(-c4cncnc4)ccc3c2)[C@H]1c1ccccc1 (racemic) [Compound 2m, (±)-γ-2,4-diphenyl-3-[6-(pyrimidin-5-yl)naphthalen-2-yloxy)carbonyl]cyclobutane-1-carboxylic acid] |  |  | 
8 | 7.59 ± 1.11 | 0.54 | 4.07 ± 0.24 | 3.49 ± 0.49 | O=C1CCc2cc(-c3cccc(OC(=O)[C@H]4[C@@H](c5ccccc5)[C@@H](C(=O)O)[C@@H]4c4ccccc4)c3)ccc2N1 (racemic) [Compound 2n, (±)-γ-3-[(3-(2-oxo-1,2,3,4-tetrahydroquinolin-6-yl)phenoxycarbonyl]-2,4-diphenylcyclobutane-1-carboxylic acid] |  |  | 
9 | 2.64 ± 0.01 | 9.0 | 51.2 ± 5.71 | 10.2 ± 1.42 | O=C(O)[C@H]1[C@H](c2ccccc2)[C@H](C(=O)OCc2cccc3ccccc23)[C@H]1c1ccccc1 [Compound 1r, α-2,4-diphenyl-3-(1-naphthaylmethyl)cyclobutane-1-carboxylic acid] |  |  | 
10 | 0.59 ± 0.08 | 13.0 | 7.67 ± 0.71 | 0.33 ± 0.01 | O=C1CCc2ccc(-c3cccc(OC(=O)[C@H]4[C@@H](c5ccccc5)[C@H](C(=O)O)[C@@H]4c4ccccc4)c3)cc2N1 [Compound 1u] |  |  | 
11 |  |  | > 10 | 2.41 ± 0.09 | O=C(O)[C@H]1[C@@H](c2ccccc2)[C@H](C(=O)OC2Cc3ccccc3C2)[C@@H]1c1ccccc1 [Compound 1v] |  |  | 
12 |  |  | 2.7 ± 0.42 | 0.45 ± 0.07 | O=C(O)[C@H]1[C@H](c2ccccc2)[C@H](C(=O)Oc2cccc3ccccc23)[C@H]1c1ccccc1 [Compound 1x] |  |  | 
13 |  |  | 4.75 ± 0.57 | 2.07 ± 0.09 | O=C(O)[C@@H]1[C@@H](c2ccccc2)[C@H](C(=O)OC2Cc3ccccc3C2)[C@H]1c1ccccc1 [Compound 3a, (±)-ε-3-[(2,3-dihydro-1H-inden-2-yl)oxycarbonyl]-2,4-diphenylcyclobutane-1-carboxylic acid] |  |  | 
14 |  |  | 18.6 ± 0.73 | 2.15 ± 0.09 | O=C(O)[C@@H]1[C@@H](c2ccccc2)[C@H](C(=O)Oc2cccc(-c3ccccc3)c2)[C@H]1c1ccccc1 [Compound 3b, (±) -ε-3-(1,1′-biphenyl-3-yloxycarbonyl)-2,4-diphenylcyclobutane-1-carboxylic acid] |  |  | 
15 | 3.15 ± 0.28 | 2.5 | 7.84 ± 0.7 | 1.49 ± 0.15 | O=C(O)[C@@H]1[C@@H](c2ccccc2)[C@H](C(=O)Oc2cccc(-c3ccc4c(c3)OCCO4)c2)[C@H]1c1ccccc1 [Compound 3d, (±)-ε-3-[3-(2,3-dihydrobenzo[b][1,4]dioxin-6-yl)phenoxycarbonyl]-2,4-diphenylcyclobutane-1-carboxylic acid] |  |  | 
16 |  |  | 0.32 ± 0.03 | 0.38 ± 0.08 | O=C(O)[C@@H]1[C@@H](c2ccccc2)[C@H](C(=O)Oc2cccc3ccccc23)[C@H]1c1ccccc1 [Compound 3g] | 54.2 | 10.6 | 36.9

Second part, the compound before the results:

Row | SMILES | Ki [1] [µM] | FABP3 Ki/FABP5 Ki [1] | Ki [4] [µM] | Ki [5] [µM] | IC50 [2] [µM] | IC50 [3] [µM] | IC50 [6] [µM]
17 | COc1ccccc1C1[C@@H](C(=O)O)[C@@H](c2ccccc2OC)[C@@H]1C(=O)Oc1cccc(-c2ccc(F)cc2)c1 (mixture of isomers) [Compound 1e, (±)-α-2,4-di (2-methoxyphenyl)-3-[3-(4-fluorophenyl)phenoxycarbonyl]cyclobutane-1-carboxylic acid] | 1.03 ± 0.11 | 2.2 | 2.28 ± 0.36 | 0.99 ± 0.53 | 27.3 | 6.79 | 9.41
18 | COc1ccccc1C1[C@@H](C(=O)O)[C@@H](c2ccccc2OC)[C@@H]1C(=O)Oc1cccc(-c2ccc3c(c2)NC(=O)C3)c1 (mixture of isomers) [Compound 1j, (±)-α-2,4-di (2-methoxyphenyl)-3-[3-(2-oxoindolin-6-yl)phenoxycarbonyl]cyclobutane-1-carboxylic acid] | 1.06 ± 0.08 |  | 3.29 ± 0.45 |  |  |  | 
19 | COc1ccccc1[C@@H]1[C@H](C(=O)O)[C@@H](c2ccccc2OC)[C@H]1C(=O)Oc1ccc2cc(-c3cncnc3)ccc2c1 (racemic) [Compound 1k, (±)-α-2,4-di (2-methoxyphenyl)-3-[7-(5-pyrimidine)naphthalen-2-yloxycarbonyl]cyclobutane-1-carboxylic acid] | 1.3 ± 0.09 | 3.7 | 4.78 ± 0.18 | 6.36 ± 1.04 |  |  | 
20 | COc1ccccc1C1[C@@H](C(=O)O)[C@@H](c2ccccc2OC)[C@@H]1C(=O)OC1Cc2ccccc2C1 (mixture of isomers) [Compound 1l, (±)-α-3-(2,3-dihydro-1-inden-2-yloxycarbonyl)-2,4-di (2-methoxyphenyl)cyclobutane-1-carboxylic acid] |  |  | 53.8 ± 7.28 | 53.8 ± 7.28 | 63.7 | 48.9 | 45.5
21 | COc1ccccc1C1[C@@H](C(=O)O)[C@@H](c2ccccc2OC)[C@@H]1C(=O)Oc1cccc(-c2ccc(C#N)cc2)c1 (mixture of isomers) [Compound 1p, (±)-3-(4′-cyano-1,1′-biphenyl-3-yloxycarbonyl)-2,4-di (2-methoxyphenyl)cyclobutane-1-carboxylic acid] | 1.74 ± 0.08 | 2.7 | 4.64 ± 0.04 | 3.16 ± 0.43 |  |  | 
22 | COc1ccccc1[C@H]1[C@H](C(=O)O)[C@H](c2ccccc2OC)[C@@H]1C(=O)Oc1cccc(-c2ccc(F)cc2)c1 (racemic) [Compound 2e, (±)-γ-3-(4′-fluoro-1,1′-biphenyl-3-yl)oxycarbonyl-2,4-di (2-methoxyphenyl)cyclobutane-1-carboxylic acid] | 1.77 ± 0.02 | 3.4 | 6.1 ± 1.34 | 3.59 ± 0.24 |  |  | 
23 | COc1ccccc1C1[C@@H](C(=O)O)[C@@H](c2ccccc2OC)[C@H]1C(=O)Oc1cccc(-c2ccc(C#N)cc2)c1 (mixture of isomers) [Compound 2g, (±)-γ-3-(4′-cyano-1,1′-biphenyl]-3-yloxycarbonyl)-2,4-di (2-methoxyphenyl)cyclobutane-1-carboxylic acid] | 2.46 ± 0.19 | 11.3 | 27.9 ± 6.37 | 9.11 ± 1.47 |  |  | 
24 | COc1ccccc1C1[C@@H](C(=O)OC2Cc3ccccc3C2)[C@@H](c2ccccc2OC)[C@H]1C(=O)O (mixture of isomers) [Compound 2l, (±)-γ-3-(2,3-dihydro-1H-inden-2-yloxycarbonyl)-2,4-bis(2-methoxyphenyl)cyclobutane-1-carboxylic acid] |  |  | 136 ± 16.4 | 5.14 ± 0.27 |  |  | 
25 | COc1ccccc1[C@H]1[C@H](C(=O)O)[C@H](c2ccccc2OC)[C@H]1C(=O)OCC1(F)c2ccccc2-c2ccccc21 [Compound 1t] | 1.83 ± 0.27 | 14.2 | 25.9 ± 2.4 | 7.72 ± 1.2 |  |  | 
26 | O=C(O)[C@H]1[C@H](c2ccccc2)[C@H](C(=O)Oc2ccccc2-c2ccccc2)[C@H]1c1ccccc1 [Compound 1z] |  |  | 0.7 ± 0.42 |  |  |  | 
27 | COc1ccccc1[C@H]1[C@H](C(=O)O)[C@H](c2ccccc2OC)[C@@H]1C(=O)Oc1cccc(-c2ccc(F)cc2)c1 [Compound 3e, ε-2,4-diphenyl-3-(4-fluorophenyl)phenoxycarbonylcyclobutane-1-carboxylic acid] | 3.4 ± 0.52 | 4.7 | 15.5 ± 1.91 | 2.19 ± 0.04 |  |  | 
